Laboratory results: US6471973B2 (Coletica, priority 1998, dated 2002)

Experiments:
[1] = biological target: T1, human leukocytic elastase (Homo sapiens, UniProt P08246); experiment: Determination of the anti-elastase activity (elastin-rhodamine, fluorescence); assay type: biochemical; details: solubilized in ethoxydiglycol, 20 min at 37° C.
T1 sequence (P08246 30-267): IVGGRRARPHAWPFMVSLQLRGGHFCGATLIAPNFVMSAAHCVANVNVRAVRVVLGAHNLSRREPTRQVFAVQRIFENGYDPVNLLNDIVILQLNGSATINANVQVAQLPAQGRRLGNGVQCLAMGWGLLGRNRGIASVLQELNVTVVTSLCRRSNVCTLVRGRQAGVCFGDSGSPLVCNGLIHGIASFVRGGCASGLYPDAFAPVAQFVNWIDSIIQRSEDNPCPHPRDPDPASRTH
Experimental: The enzymatic substrate elastin-rhodamine is dissolved in TrisHCl buffer (31.52 g of TrisHCl, water qsp 1000 ml) of pH 8.8 at a rate of 15 mg/ml. 1 mg of human leukocytic elastase is dissolved in 20 ml of TrisHCl buffer. The products of the invention are evaluated for their capacity to inhibit the degradation of elastin, which can be followed by fluorescence (excitation at 530 nm; emission at 590 nm) after the incubation, for 20 min at 37° C., of a mixture comprising the substrate, the enzyme and the inhibitor to be tested. The results are given as % inhibition relative to the inhibitor-free control.

[2] = in vivo
Experimental: This preparation is used for the following toxicity studies:
The tests were performed by the official method in accordance with the decree of Feb.

[3] = Determination of the free radical inhibiting activity in vitro; details: 30 minutes; for % free radical inhibiting activity: dissolved in ethoxydiglycol, control subtracted; for Free radical inhibiting activity: compound at 25 mM, dissolved in DMSO, DMSO control subtracted
Experimental: A 60 μM solution of 1,1-diphenyl-2-picrylhydrazyl in ethanol is placed in contact, for 30 minutes at room temperature, with a sample originating from the products of the invention whose free radical inhibiting power is to be determined. […] The higher the percentage decrease, the stronger will be the free radical inhibiting activity of the active ingredient tested.

[4] = Oxidation stability test on flavonoids in simple preparations (color of solutions); assay type: physicochemical; details: 0.103 M in ethoxydiglycol, Pantone color
Experimental: A solution of […] containing 31.1 g/l (i.e. 0.103 M) is prepared in ethoxy-diglycol. The pH is adjusted to 5 or 6 and then 10 g/l of a preservative based on parabens are added to the mixture in order to avoid bacterial pollution. […] At identical molar concentrations, the two products are therefore compared for their oxidation stability, the color parameters being used as the stability indicators. The color references given in the Examples which follow refer to the Pantone colors as used in all the paint color charts well known to those skilled in the art.

[5] = Oxidation stability test on flavonoids in complex preparations (emulsions); assay type: physicochemical; details: 45° C.
Experimental: Oxidation stability test on flavonoids in complex preparations (emulsions) Composition of the formulation: [table] After studying the stabilities over about 1 month, it can be said that the color of the formulations containing flavonoids used in the form which has not been rendered lipophilic undergoes an extremely unfavorable change at 45° C.

[6] = test concentration 1.03^−3 mol/l
[7] = test concentration 1.03^−4 mol/l
[8] = test concentration 1.03^−5 mol/l

Hesperitin monoacylated by C12 [Example 7]
Anti-elastase test: % inhibition relative to the inhibitor-free control ([1]; test concentration 0.103 mol/l): 100% | Anti-elastase test: % inhibition relative to the inhibitor-free control [1, 6]: 50% | Anti-elastase test: % inhibition relative to the inhibitor-free control [1, 7]: 36% | Anti-elastase test: % inhibition relative to the inhibitor-free control [1, 8]: 34%

hesperitin triacylated by C18:2 [Example 15]
Skin irritation [2]: did not cause any irritation phenomena

CCCC(=O)Oc1cc(OC(=O)CCC)c2c(c1)OC(c1ccc(OC)c(OC(=O)CCC)c1)CC2=O (stereo not shown) [Example 12, hesperitin triacylated by C4]
Skin irritation [2]: did not cause any irritation phenomena

COc1ccc([C@@H]2CC(=O)c3c(O)cc(O)cc3O2)cc1O [Hesperitin, hesperitin]
% free radical inhibiting activity ([3]; 0.103 mol/l): 94% | % free radical inhibiting activity ([3]; 1.03^−3 mol/l): 28% | % free radical inhibiting activity ([3]; 1.03^−5 mol/l): 8% | Free radical inhibiting activity [3]: 42% | Anti-elastase test: % inhibition relative to the inhibitor-free control [1, 6]: 20% | Anti-elastase test: % inhibition relative to the inhibitor-free control [1, 7]: 24% | Anti-elastase test: % inhibition relative to the inhibitor-free control [1, 8]: 0% | Color of the solutions 1 day after manufacture ([4]; pH 5, 4° C.): 157C | Color of the solutions 21 days after manufacture ([4]; pH 5, 4° C.): black + | Color of the solutions 1 day after manufacture ([4]; pH 5, 20° C.): 157C | Color of the solutions 21 days after manufacture ([4]; pH 5, 20° C.): black + | Color of the solutions 1 day after manufacture ([4]; pH 5, 45° C.): 157C | Color of the solutions 21 days after manufacture ([4]; pH 5, 45° C.): black + | Color of the solutions 1 day after manufacture ([4]; pH 6, 4° C.): 157C | Color of the solutions 21 days after manufacture ([4]; pH 6, 4° C.): black + | Color of the solutions 1 day after manufacture ([4]; pH 6, 20° C.): 157C | Color of the solutions 21 days after manufacture ([4]; pH 6, 20° C.): black + | Color of the solutions 1 day after manufacture ([4]; pH 6, 45° C.): 157C | Color of the solutions 21 days after manufacture ([4]; pH 6, 45° C.): black + | Stability test: color of cream, T 1 day ([5]; 520 μM in cream (emulsion)): light beige | Stability test: color of cream, T 7 days ([5]; 520 μM in cream (emulsion)): yellow | Stability test: color of cream, T 25 days ([5]; 520 μM in cream (emulsion)): yellow | Stability test: color of cream, T 35 days ([5]; 520 μM in cream (emulsion)): yellow | Stability test: color of cream, T 1 day ([5]; 1043 μM in cream (emulsion)): more | Stability test: color of cream, T 7 days ([5]; 1043 μM in cream (emulsion)): very yellow | Stability test: color of cream, T 25 days ([5]; 1043 μM in cream (emulsion)): very yellow | Stability test: color of cream, T 35 days ([5]; 1043 μM in cream (emulsion)): very yellow

hesperitin diacylated by C12 [Example 6]
Free radical inhibiting activity [3]: 67% | Anti-elastase test: % inhibition relative to the inhibitor-free control ([1]; test concentration 0.103 mol/l): 100% | Anti-elastase test: % inhibition relative to the inhibitor-free control [1, 6]: 65% | Anti-elastase test: % inhibition relative to the inhibitor-free control [1, 8]: 29%
